Measurements: article PMC7606486, “CFAP45 deficiency causes situs abnormalities and asthenospermia by disrupting an axonemal adenine nucleotide homeostasis module” (Nature Communications, 2020)

Assays:
CFAP45 = target: T1, CFAP45 (Homo sapiens, UniProt Q9UL16); experiment: AMP-agarose pull-down, immunoblot or silver stain; type: binding; conditions: AMP immobilised on agarose, best with the 6AH-AMP resin; sperm eluates released with 100 mM free 5'-AMP; 500 mM NaCl lysis buffer, pH 8.0, 4 °C; labelled compound
T1 construct: full length, 551 aa, 66 kDa
T1 sequence (Q9UL16 whole entry): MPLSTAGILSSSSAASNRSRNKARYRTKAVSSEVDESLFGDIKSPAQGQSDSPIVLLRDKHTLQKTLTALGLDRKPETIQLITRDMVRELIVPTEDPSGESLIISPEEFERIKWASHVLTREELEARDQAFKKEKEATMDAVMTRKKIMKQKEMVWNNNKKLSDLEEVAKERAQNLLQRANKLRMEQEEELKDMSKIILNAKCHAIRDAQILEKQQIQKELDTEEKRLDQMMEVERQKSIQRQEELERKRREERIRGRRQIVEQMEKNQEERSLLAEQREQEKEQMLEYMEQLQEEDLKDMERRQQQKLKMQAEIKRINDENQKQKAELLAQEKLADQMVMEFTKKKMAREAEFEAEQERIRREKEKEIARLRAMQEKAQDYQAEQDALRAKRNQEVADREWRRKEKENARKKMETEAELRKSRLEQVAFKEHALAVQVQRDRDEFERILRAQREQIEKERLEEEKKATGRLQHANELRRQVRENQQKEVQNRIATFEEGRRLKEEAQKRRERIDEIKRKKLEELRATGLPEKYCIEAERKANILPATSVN

AK8 = target: T2, AK8 (Homo sapiens, UniProt Q96MA6); experiment: AMP-agarose pull-down, anti-FLAG immunoblot; type: binding; conditions: AMP immobilised on agarose, preferentially the αAH-AMP resin; 500 mM NaCl lysis buffer; labelled compound
T2 sequence (Q96MA6 1-479): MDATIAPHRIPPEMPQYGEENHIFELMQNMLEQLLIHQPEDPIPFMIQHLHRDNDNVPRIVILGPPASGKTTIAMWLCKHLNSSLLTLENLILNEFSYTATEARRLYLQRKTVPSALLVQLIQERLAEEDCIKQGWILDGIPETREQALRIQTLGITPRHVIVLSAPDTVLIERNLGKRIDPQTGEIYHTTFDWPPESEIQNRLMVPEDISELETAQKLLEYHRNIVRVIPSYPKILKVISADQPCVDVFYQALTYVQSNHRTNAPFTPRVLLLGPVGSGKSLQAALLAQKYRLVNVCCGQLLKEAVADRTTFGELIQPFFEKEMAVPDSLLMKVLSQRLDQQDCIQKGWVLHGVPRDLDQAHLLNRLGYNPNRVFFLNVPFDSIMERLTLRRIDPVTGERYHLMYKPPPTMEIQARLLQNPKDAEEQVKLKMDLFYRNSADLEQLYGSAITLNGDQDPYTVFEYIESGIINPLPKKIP

For `Nc1ncnc2c1ncn2[C@@H]1O[C@H](COP(=O)(O)O)[C@@H](O)[C@H]1O` [AMP], the “AMP-agarose pull-down, immunoblot or silver stain” value (CFAP45) was “CFAP45 immunoprecipitates recovered from human sperm (see “Methods”) showed affinity to AMP, especially 6AH-AMP-agarose” and the “AMP-agarose pull-down, anti-FLAG immunoblot” value (AK8) was “NTAP-AK8 shows affinity to αAH-AMP-agarose following elution and IB with monoclonal anti-FLAG antibody”.
